Legend:
Experiment in all cases: Cell panel screen (CellTiter-Glo)
Assay type in all cases: cell-based, human
HCC1599 = HCC1599 (Breast), 20 micromolar, 72 hrs
How it was run: (§1)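 Percent growth inhibition at one concentration (20 μM final) after 72 h treatment, derived from cellular ATP luminescence and normalised between DMSO-treated cells and wells lacking cells.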

HPAF-II = HPAF-II (Pancreas), 20 micromolar, 72 hrs
How it was run: as §1

RL95 = RL95 (Uterus), 20 micromolar, 72 hrs
How it was run: as §1

HEC-1-A = HEC-1-A (Uterus), 20 micromolar, 72 hrs
How it was run: as §1

Panc 03.27 = Panc 03.27 (Pancreas), 20 micromolar, 72 hrs
How it was run: as §1

NCI-H2405 = NCI-H2405 (Lung), 20 micromolar, 72 hrs
How it was run: as §1

Colo 205 = conditions: Colo 205, 20 micromolar, 72 hrs
How it was run: as §1

BT-549 = BT-549 (Breast), 20 micromolar, 72 hrs
How it was run: as §1

ChaGo-K-1 = ChaGo-K-1 (Lung), 20 micromolar, 72 hrs
How it was run: as §1

CCF-STTG1 = CCF-STTG1 (Brain), 20 micromolar, 72 hrs
How it was run: as §1

J82 = J82 (Urinary bladder), 20 micromolar, 72 hrs
How it was run: as §1

T98G = T98G (Brain), 20 micromolar, 72 hrs
How it was run: as §1

NCI-H1770 = NCI-H1770 (Lung), 20 micromolar, 72 hrs
How it was run: as §1

NCI-H28 = NCI-H28 (Lung), 20 micromolar, 72 hrs
How it was run: as §1

SW13 = SW13 (Adrenal gland), 20 micromolar, 72 hrs
How it was run: as §1

TCCSUP = TCCSUP (Urinary bladder), 20 micromolar, 72 hrs
How it was run: as §1

HT-1197 = HT-1197 (Urinary bladder), 20 micromolar, 72 hrs
How it was run: as §1

A498 = A498 (listed under Lung), 20 micromolar, 72 hrs
How it was run: as §1

NCI-H1694 = NCI-H1694 (Lung), 20 micromolar, 72 hrs
How it was run: as §1

HCC1395 = HCC1395 (Breast), 20 micromolar, 72 hrs
How it was run: as §1

Bel-7402 = Bel-7402 (Liver), 20 micromolar, 72 hrs
How it was run: as §1

NCI-H2347 = NCI-H2347 (Lung), 20 micromolar, 72 hrs
How it was run: as §1

C8166 = C8166 (Leukemia), 20 micromolar, 72 hrs
How it was run: as §1

NCI-H524 = NCI-H524 (Lung), 20 micromolar, 72 hrs
How it was run: as §1

M059J = M059J (Brain), 20 micromolar, 72 hrs
How it was run: as §1

CW-2 = CW-2 (Colon), 20 micromolar, 72 hrs
How it was run: as §1

BT-474 = BT-474 (Breast), 20 micromolar, 72 hrs
How it was run: as §1

ZR-75-30 = ZR-75-30 (Breast), 20 micromolar, 72 hrs
How it was run: as §1

HGC-27 = HGC-27 (Stomach), 20 micromolar, 72 hrs
How it was run: as §1

NCI-H1623 = NCI-H1623 (Lung), 20 micromolar, 72 hrs
How it was run: as §1

T47D = T47D (Breast), 20 micromolar, 72 hrs
How it was run: as §1

MSTO-211-H = MSTO-211-H (Lung), 20 micromolar, 72 hrs
How it was run: as §1

A704 = A704 (Kidney), 20 micromolar, 72 hrs
How it was run: as §1

C3A = C3A (Liver), 20 micromolar, 72 hrs
How it was run: as §1

HCC1937 = HCC1937 (Breast), 20 micromolar, 72 hrs
How it was run: as §1

HCC1569 = HCC1569 (Breast), 20 micromolar, 72 hrs
How it was run: as §1

Row | Molecule | Percent Inhibition (HCC1599) [%] | Percent Inhibition (HPAF-II) [%] | Percent Inhibition (RL95) [%] | Percent Inhibition (HEC-1-A) [%] | Percent Inhibition (Panc 03.27) [%] | Percent Inhibition (NCI-H2405) [%] | Percent Inhibition (Colo 205) [%] | Percent Inhibition (BT-549) [%] | Percent Inhibition (ChaGo-K-1) [%] | Percent Inhibition (CCF-STTG1) [%] | Percent Inhibition (J82) [%] | Percent Inhibition (T98G) [%] | Percent Inhibition (NCI-H1770) [%] | Percent Inhibition (NCI-H28) [%] | Percent Inhibition (SW13) [%] | Percent Inhibition (TCCSUP) [%] | Percent Inhibition (HT-1197) [%] | Percent Inhibition (A498) [%] | Percent Inhibition (NCI-H1694) [%] | Percent Inhibition (HCC1395) [%] | also measured
1 | CC(C)=CCCC1(C)C=Cc2c(O)c3c(c(CC=C(C)C)c2O1)OC12C(=CC4CC1C(C)(C)OC2(CC=C(C)C(=O)O)C4=O)C3=O (mixture of isomers) [GB8] | 100 | 99 | 100 | 100 | 99 | 99 | 99 | 100 | 99 | 99 | 99 | 100 | 100 | 99 | 99 | 100 | 99 | 99 | 100 | 99 | Percent Inhibition (Bel-7402): 99%; Percent Inhibition (NCI-H2347): 99%; Percent Inhibition (C8166): 100%; Percent Inhibition (NCI-H524): 98%; Percent Inhibition (M059J): 100%; Percent Inhibition (CW-2): 99%; Percent Inhibition (BT-474): 99%; Percent Inhibition (ZR-75-30): 99%; Percent Inhibition (HGC-27): 100%; Percent Inhibition (NCI-H1623): 99%; Percent Inhibition (T47D): 100%; Percent Inhibition (MSTO-211-H): 100%; Percent Inhibition (A704): 99%; Percent Inhibition (C3A): 99%; Percent Inhibition (HCC1937): 100%; Percent Inhibition (HCC1569): 100%
2 | O=C1c2c(O)cc(O)cc2OC(c2ccc(O)c(O)c2)C1O (stereo not drawn) [gl-34] | 42 | 6 | 3 | -5 | 9 | -5 | 1 | -9 | -3 | 4 | 3 | 1 | 0 | -11 | -13 | 4 | 10 | 2 | 10 | 16 | Percent Inhibition (Bel-7402): -9%; Percent Inhibition (NCI-H2347): 2%; Percent Inhibition (C8166): 7%; Percent Inhibition (NCI-H524): -31%; Percent Inhibition (M059J): 9%; Percent Inhibition (CW-2): 7%; Percent Inhibition (BT-474): -15%; Percent Inhibition (ZR-75-30): 14%; Percent Inhibition (HGC-27): -8%; Percent Inhibition (NCI-H1623): -7%; Percent Inhibition (T47D): -6%; Percent Inhibition (MSTO-211-H): -9%; Percent Inhibition (A704): -13%; Percent Inhibition (C3A): -13%; Percent Inhibition (HCC1937): 8%; Percent Inhibition (HCC1569): 3%
3 | O=c1c2cc(O)c(O)cc2oc2cc(O)cc(O)c12 [Ge-17] | 79 | 13 | 53 | 51 | 20 | -5 | 3 | 40 | 22 | 15 | 47 | 54 | 72 | 9 | 8 | 61 | 16 | 41 | 99 | 38 | Percent Inhibition (Bel-7402): 7%; Percent Inhibition (NCI-H2347): 4%; Percent Inhibition (C8166): 62%; Percent Inhibition (NCI-H524): 47%; Percent Inhibition (M059J): 63%; Percent Inhibition (CW-2): 25%; Percent Inhibition (BT-474): -7%; Percent Inhibition (ZR-75-30): 6%; Percent Inhibition (HGC-27): 55%; Percent Inhibition (NCI-H1623): 2%; Percent Inhibition (T47D): 48%; Percent Inhibition (MSTO-211-H): 74%; Percent Inhibition (A704): 1%; Percent Inhibition (C3A): 33%; Percent Inhibition (HCC1937): 65%; Percent Inhibition (HCC1569): 16%
4 | Bannaxanthone G [bn-21] | 97 | 84 | 88 | 71 | 95 | 80 | 100 | 70 | 95 | 68 | 88 | 77 | 94 | 73 | 92 | 84 | 91 | 60 | 100 | 95 | Percent Inhibition (Bel-7402): 93%; Percent Inhibition (NCI-H2347): 75%; Percent Inhibition (C8166): 90%; Percent Inhibition (NCI-H524): 100%; Percent Inhibition (M059J): 94%; Percent Inhibition (CW-2): 99%; Percent Inhibition (BT-474): 88%; Percent Inhibition (ZR-75-30): 99%; Percent Inhibition (HGC-27): 84%; Percent Inhibition (NCI-H1623): 72%; Percent Inhibition (T47D): 64%; Percent Inhibition (MSTO-211-H): 90%; Percent Inhibition (A704): 64%; Percent Inhibition (C3A): 62%; Percent Inhibition (HCC1937): 92%; Percent Inhibition (HCC1569): 76%
5 | O=C1c2c(O)cc(O)cc2OC(c2ccc(O)cc2)C1c1c(O)cc(O)c2c(=O)cc(-c3ccc(O)c(O)c3)oc12 (stereo not drawn) [WZ-4] | 8 | -10 | -2 | 10 | -16 | -14 | -6 | -12 | -14 | 0 | -5 | -2 | -10 | 0 | 5 | 3 | -4 | 4 | -10 | 16 | Percent Inhibition (Bel-7402): -3%; Percent Inhibition (NCI-H2347): -4%; Percent Inhibition (C8166): -3%; Percent Inhibition (NCI-H524): -18%; Percent Inhibition (M059J): -1%; Percent Inhibition (CW-2): 11%; Percent Inhibition (BT-474): -5%; Percent Inhibition (ZR-75-30): 8%; Percent Inhibition (HGC-27): -4%; Percent Inhibition (NCI-H1623): -15%; Percent Inhibition (T47D): 6%; Percent Inhibition (MSTO-211-H): 6%; Percent Inhibition (A704): -1%; Percent Inhibition (C3A): -2%; Percent Inhibition (HCC1937): 0%; Percent Inhibition (HCC1569): -17%
